Reference: US10201507B2, “Modulators of intracellular chloride concentration for treating fragile X syndrome” (NEUROCHLORE, priority 2012, dated 2019)

Tested on: hippocampal CA3 pyramidal neurons
Assay: Whole-cell recordings of spontaneous excitatory postsynaptic currents (sEPSCs) at P15 after maternal pretreatment
Format: in vivo, mouse
Conditions: FXS offspring P15, maternal pretreatment, −70 mV
Description: Standard whole-cell recordings were performed in coronal neocortical rat or mouse brain slices at room temperature (20-22° C.) from the soma of hippocampal CA3 neurons using an EPC-10 (HEKA Elektronik, Germany) amplifier and filtered at 3-10 kHz. The internal solution contained (in mM): 130 K-gluconate, 10 Na-gluconate, 4 NaCl, 4 MgATP, 4 phosphocreatine, 10 HEPES, and 0.3 GTP (pH 7.3 with KOH). Biocytin (final concentration 0.3-0.5%) was added to the pipette solution to label the neurons from which recordings were obtained. Neurons were visualized by using infrared DIC video microscopy. Spontaneous postsynaptic currents were recorded for […] at the reversal potentials for GABAergic currents (-70 mV). […] Stored data were analyzed using the Mini Analysis 6.0.3 (Synaptosoft Inc., […].) and Origin (MicroCal, Northampton, Mass.) software. […] Data are expressed as mean±S.E.M. To test whether depolarizing actions of GABA were associated with neuronal excitation, the effect of the GABAA receptor agonist isoguvacine was tested. […] To test whether maternal treatment with bumetanide before delivery switches the action of GABA from excitatory to inhibitory in offsprings at P15, pregnant females were treated orally 1 day before delivery with bumetanide (2-2.5 mg/kg in drinking water) and juvenile offspring neurons recorded at P15. […]

## CCCCNc1cc(C(=O)O)cc(S(N)(=O)=O)c1Oc1ccccc1 [bumetanide]
  ongoing activity and frequency of glutamatergic sEPSCs (in words): significantly reduced
